From ChEMBL document CHEMBL5131471, “Design, synthesis and mechanism studies of novel dual PARP1/BRD4 inhibitors against pancreatic cancer” (Eur J Med Chem, 2022)

Assays:
[1] = system: MDA-MB-468; assay: Antiproliferative activity against BRCA-proficient human MDA-MB-468 cells assessed as inhibition of cell growth measured after 7 days by MTT assay; format: functional, cell-based; settings: MDA-MB-468, 168 h
[2] = system: MDA-MB-231; assay: Antiproliferative activity against BRCA-proficient human MDA-MB-231 cells assessed as inhibition of cell growth measured after 7 days by MTT assay; format: functional, cell-based; settings: MDA-MB-231, 168 h
[3] = biological target: Poly [ADP-ribose] polymerase 1 (Homo sapiens, UniProt P09874); assay: Inhibition of PARP1 (unknown origin) using biotinylated NAD+ as substrate by microplate reader method
Chain of Poly [ADP-ribose] polymerase 1 (P09874 whole entry): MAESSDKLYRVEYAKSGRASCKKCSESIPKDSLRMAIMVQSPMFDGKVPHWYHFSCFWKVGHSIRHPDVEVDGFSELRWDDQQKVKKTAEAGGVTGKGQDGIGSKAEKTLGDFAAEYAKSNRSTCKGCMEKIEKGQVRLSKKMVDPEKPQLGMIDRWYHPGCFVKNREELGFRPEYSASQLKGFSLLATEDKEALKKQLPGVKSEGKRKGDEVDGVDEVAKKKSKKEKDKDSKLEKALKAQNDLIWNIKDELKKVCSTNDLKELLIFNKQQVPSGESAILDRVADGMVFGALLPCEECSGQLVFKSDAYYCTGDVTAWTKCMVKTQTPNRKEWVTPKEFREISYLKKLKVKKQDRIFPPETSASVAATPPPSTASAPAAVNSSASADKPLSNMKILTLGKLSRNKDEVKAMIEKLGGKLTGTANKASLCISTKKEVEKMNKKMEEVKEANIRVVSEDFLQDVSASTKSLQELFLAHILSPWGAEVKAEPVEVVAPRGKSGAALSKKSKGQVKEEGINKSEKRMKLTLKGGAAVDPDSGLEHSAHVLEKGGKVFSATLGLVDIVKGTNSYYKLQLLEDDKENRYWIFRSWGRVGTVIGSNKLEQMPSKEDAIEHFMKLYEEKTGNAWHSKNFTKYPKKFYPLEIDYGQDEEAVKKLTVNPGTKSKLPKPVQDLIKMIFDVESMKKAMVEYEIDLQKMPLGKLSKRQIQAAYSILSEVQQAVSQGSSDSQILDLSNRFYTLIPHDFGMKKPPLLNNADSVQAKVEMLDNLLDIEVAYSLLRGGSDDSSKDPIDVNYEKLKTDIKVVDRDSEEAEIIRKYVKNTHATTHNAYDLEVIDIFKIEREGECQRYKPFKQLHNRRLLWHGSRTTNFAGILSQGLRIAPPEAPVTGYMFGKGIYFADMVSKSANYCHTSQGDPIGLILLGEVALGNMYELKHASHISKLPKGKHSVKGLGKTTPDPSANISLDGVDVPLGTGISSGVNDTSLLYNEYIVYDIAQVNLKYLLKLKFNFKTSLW

[4] = biological target: Bromodomain-containing protein 4 (Homo sapiens, UniProt O60885); assay: Inhibition of BRD4-BD1/2 (unknown origin)
[5] = system: HCT-116; assay: Antiproliferative activity against BRCA2-mutated human HCT-116 cells assessed as inhibition of cell growth measured after 7 days by MTT assay; format: functional, cell-based; settings: HCT-116, 168 h
[6] = system: THP-1; assay: Antiproliferative activity against human THP-1 cells expressing BRD4 assessed as inhibition of cell growth measured after 3 days by MTT assay; format: functional, cell-based; settings: THP-1, 72 h
[7] = system: SW1990; assay: Antiproliferative activity against human SW1990 cells assessed as inhibition of cell growth measured after 4 days by MTT assay; format: functional, cell-based; settings: SW1990, 96 h
[8] = system: CAPAN-1; assay: Antiproliferative activity against human CAPAN-1 cells assessed as inhibition of cell growth measured after 4 days by MTT assay; format: functional, cell-based; settings: CAPAN-1, 96 h
[9] = system: CFPAC-1; assay: Antiproliferative activity against human CFPAC-1 cells assessed as inhibition of cell growth measured after 4 days by MTT assay; format: functional, cell-based; settings: CFPAC-1, 96 h

IC50 [1] [µM] | IC50 [2] [µM] | IC50 [3] [µM] | IC50 [4] [µM] | IC50 [5] [µM] | IC50 [6] [µM] | IC50 [7] [µM] | SMILES | IC50 [8] [µM] | IC50 [9] [µM]
1.04 | 2.63 | 0.052 | 0.09 | 16.5 | 1.66 | – | Cc1noc(C)c1-c1ccc2c(c1)C(c1ccccc1)N(CC(=O)N[C@@H](C)c1nc3c(C(N)=O)cccc3[nH]1)C(=O)N2 (stereo partly specified) | – | –
2.59 | 8.09 | 0.116 | 0.132 | 44.4 | 4.09 | – | Cc1noc(C)c1-c1ccc2c(c1)C(c1ccccc1)N(CC(=O)c1nc3c(C(N)=O)cccc3[nH]1)C(=O)N2 (stereo unspecified) | – | –
– | – | 0.073 | 0.534 | – | – | – | Cc1noc(C)c1-c1ccc2c(c1)C(c1ccccc1)N(CC(=O)NCc1nc3c(C(N)=O)cccc3[nH]1)C(=O)N2C (stereo unspecified) | – | –
0.93 | 2.6 | 0.112 | 0.116 | 16.9 | 1.53 | – | Cc1noc(C)c1-c1ccc2c(c1)C(c1ccccc1)N(CC(=O)N[C@H](C)c1nc3c(C(N)=O)cccc3[nH]1)C(=O)N2 (stereo partly specified) | – | –
– | – | 0.326 | 0.114 | – | – | – | Cc1noc(C)c1-c1ccc2c(c1)C(c1ccccc1)N(CC(=O)NC(c1nc3c(C(N)=O)cccc3[nH]1)C(C)C)C(=O)N2 (stereo unspecified) | – | –
0.38 | 0.52 | 0.187 | 0.326 | 5.29 | 0.74 | – | Cc1noc(C)c1-c1ccc2c(c1)C(c1ccccc1)N(CC(=O)N[C@@H](C)c1nc3c(C(N)=O)cccc3[nH]1)C(=O)N2C (stereo partly specified) | – | –
0.46 | 0.92 | 0.062 | 0.102 | 11.8 | 0.69 | 3.88 | Cc1noc(C)c1-c1ccc2c(c1)C(c1ccccc1)N(CC(=O)NC(C)(C)c1nc3c(C(N)=O)cccc3[nH]1)C(=O)N2 (stereo unspecified) | 3.71 | 2.56
1.12 | 1.32 | 0.361 | 0.043 | 3.72 | 0.21 | 2.52 | Cc1noc(C)c1-c1ccc2c(c1)C(c1ccccc1)N(Cc1nc3c(C(N)=O)cccc3[nH]1)C(=O)N2 (stereo unspecified) | 2.31 | 2.03
